Results from patent US4117146A, “Method for treating depression and anxiety using phenyl hydrazo compounds” (The Dow Chemical Company, priority 1977, dated 1978).
Like-named read-outs stand apart in the source and are kept apart here.

What was measured:
[1] = test system: reserpine-induced depression; assay: protection from reserpine-induced depression (ptosis) in mice; assay type: in vivo; conditions: for ED50: Mus musculus, 0.75 h; for antidepressant activity (in words): mean effective dose not calculated for the compounds of b45-b48
Procedure: Separate groups of mice of the same origin and past history (5 mice per group) were administered 2-(2-(2-chlorophenyl)hydrazino)-4,5-dihydro-1H-imidazole monohydrochloride in an aqueous carrier. Different groups were administered the compound by intraperitoneal injection at various dosage rates. Thirty minutes after the administration of the test compound, the mice were administered reserpine at a dosage rate of 2.5 milligrams per kilogram by intraperitoneal injection. Separate groups of similar mice were similarly administered 2.5 milligrams of reserpine per kilogram 30 minutes after administration of various dosages of the known antidepressant. The mice were then observed for 45 minutes for symptoms of reserpine-induced depression.
Protection from reserpine-induced depression is indicated by the absence of the characteristic ptosis.
The results were employed to calculate the dose effective to protect 50 percent of the mice (ED50) by classical, statistical procedures.
The procedure of Example 1 was repeated using oral administration of 2-(2-(2-chlorophenyl)hydrazino)-4,5-dihydro-1H-imidazole monohydrochloride instead of intraperitoneal injection.
Using the general procedure outlined above, the ED50 's were calculated for other compounds showing antidepressant properties. These compounds are represented by the general formula [drawing 2]

[2] = intraperitoneal acute 50 percent lethal dose; conditions: mouse, in vivo, ip
[3] = ip, Table I, intraperitoneal, read-out: Intraperitoneal ED50
[4] = Table I, oral, read-out: ORAL ED50

| SMILES | ED50 [1, 3] [mg/kg] | ED50 [1, 4] [mg/kg] | antidepressant activity (in words) [1] | ED50 ([1]; oral administration, reserpine 2.5 mg/kg i.p., read-out: oral ED50) [mg/kg] | ED50 ([1]; ip, intraperitoneal, 30 minutes before reserpine 2.5 mg/kg i.p., read-out: ED50 (dose effective to protect 50 percent of the mice)) [mg/kg] | LD50 [2] [mg/kg] |
| --- | --- | --- | --- | --- | --- | --- |
| CN1CCN=C1NNc1ccc(Cl)cc1Cl [Example 6] | 43 | – | – | – | – | – |
| Fc1ccccc1NNC1=NCCN1.I [Example 3, 2-((2-fluorophenyl)hydrazino)-4,5-dihydro-1H-imidazole monohydriodide] | < 10 | 1 | particularly active as antidepressants | – | – | – |
| CN1CCN=C1NNc1ccccc1F [Example 4] | 37 | 27 | – | – | – | – |
| Cl.Clc1ccccc1NNC1=NCCN1 [Example 1, 2-(2-(2-chlorophenyl)hydrazino)-4,5-dihydro-1H-imidazole monohydrochloride] | – | – | particularly active as antidepressants | 2 | < 10 | 167 |
| Fc1ccccc1NNC1=NCCCN1 [Example 5] | 37 | 43 | – | – | – | – |
